Article PMC2713172 (Biochemistry, 2008)
Like-named read-outs stand apart in the source and are kept apart here.

Assays:
[1] = target: T1, wild-type CYP2C9 (Homo sapiens, UniProt P11712); assay: biochemical
[2] = target: T2, CYP2C9 F114W/F476W double mutant (Homo sapiens, UniProt P11712, F114W/F476W); details: F114W/F476W
[3] = target: T3, CYP2C9 F114W mutant (Homo sapiens, UniProt P11712, F114W); assay: biochemical
[4] = target: T4, CYP2C9 F100L mutant (Homo sapiens, UniProt P11712, F100L); details: F100L
[5] = target: T4, CYP2C9 F100L mutant; assay: biochemical
[6] = target: T2, CYP2C9 F114W/F476W double mutant; assay: biochemical
[7] = target: T5, CYP2C9 F114L mutant (Homo sapiens, UniProt P11712, F114L); details: F114L
[8] = target: T5, CYP2C9 F114L mutant; assay: biochemical
[9] = target: T6, CYP2C9 F476W mutant (Homo sapiens, UniProt P11712, F476W)
[10] = target: T7, CYP2C9 F114L/F476L double mutant (Homo sapiens, UniProt P11712, F114L/F476L)
[11] = target: T6, CYP2C9 F476W mutant; assay: biochemical
[12] = target: T1, wild-type CYP2C9; details: WT; for T1, 2C9 + CO: dithionite/CO
[13] = target: T3, CYP2C9 F114W mutant
[14] = target: T4, CYP2C9 F100L mutant; assay: in vitro; details: pH 7.4
[15] = target: T2, CYP2C9 F114W/F476W double mutant; assay: in vitro; details: pH 7.4
[16] = target: T3, CYP2C9 F114W mutant; details: F114W
[17] = target: T6, CYP2C9 F476W mutant; remark: listed apart in the source
[18] = target: T7, CYP2C9 F114L/F476L double mutant; assay: biochemical
[19] = target: T5, CYP2C9 F114L mutant
[20] = target: T6, CYP2C9 F476W mutant; assay: in vitro; details: pH 7.4
[21] = target: T3, CYP2C9 F114W mutant; assay: in vitro; details: pH 7.4
[22] = target: T2, CYP2C9 F114W/F476W double mutant
[23] = target: T6, CYP2C9 F476W mutant; remark: listed apart in the source
[24] = target: T8, CYP2C9 F476L mutant (Homo sapiens, UniProt P11712, F476L)
[25] = target: T8, CYP2C9 F476L mutant; assay: biochemical
[26] = target: T1, wild-type CYP2C9
[27] = target: T1, wild-type CYP2C9; remark: listed apart in the source

C[C@H](C(=O)O)c1ccc(-c2ccccc2)c(F)c1 [(S)-flurbiprofen]
Kd [1]: 3.4 ± 0.4 µM
percent of wild-type ΔA/K [2]: 6%
ΔA/K [2]: 0.3 μM^−1 × 10^−3
ΔAmax (maximum observed difference 390–420 nm) [2]: 7.3 ± 0.4 ×10^−3
Kd [3]: 4 ± 0.2 µM
percent of wild-type ΔA/K [4]: 137%
ΔA/K [4]: 7.3 μM^−1 × 10^−3
ΔAmax (maximum observed difference 390–420 nm) [4]: 16 ± 0.3 ×10^−3
Kd [5]: 2.2 ± 0.2 µM
Kd [6]: 22.3 ± 4.1 µM
percent of wild-type ΔA/K [7]: 46%
ΔA/K [7]: 2.4 μM^−1 × 10^−3
ΔAmax (maximum observed difference 390–420 nm) [7]: 10 ± 0.4 ×10^−3
Kd [8]: 4.1 ± 0.6 µM
percent of wild-type ΔA/K ([9]; F476W): 5%
ΔA/K ([9]; F476W): 0.3 μM^−1 × 10^−3
fraction high spin ([9]; F476W + ligand, used for the NMR distance calculation): 0.06
percent of wild-type kcat/Km [10]: 3%
Kd [11]: 18.3 ± 1.9 µM
T1, 2C9 ([12]; proton H2): 2.44 (0.10) seconds
r, distance of proton from the heme iron ([12]; proton H2): 5.95 (0.11) angstroms
T1, 2C9 + CO ([12]; proton H2): 2.79 (0.14) seconds
T1, 2C9 ([12]; proton H4′): 3.44 (0.26) seconds
r, distance of proton from the heme iron ([12]; proton H4′): 6.11 (0.19) angstroms
T1, 2C9 + CO ([12]; proton H4′): 4.25 (0.44) seconds
T1, 2C9 ([12]; proton H5): 2.17 (0.07) seconds
r, distance of proton from the heme iron ([12]; proton H5): 6.27 (0.16) angstroms
T1, 2C9 + CO ([12]; proton H5): 2.26 (0.10) seconds
T1, 2C9 ([12]; proton H6): 1.79 (0.05) seconds
r, distance of proton from the heme iron ([12]; proton H6): 7.30 (0.19) angstroms
T1, 2C9 + CO ([12]; proton H6): 2.04 (0.10) seconds
T1, 2C9 ([12]; protons CH3): 0.68 (0.01) seconds
r, distance of proton from the heme iron ([12]; protons CH3): 7.82 (0.09) angstroms
T1, 2C9 + CO ([12]; protons CH3): 0.68 (0.01) seconds
T1, 2C9 ([12]; protons H2′/6′): 2.38 (0.07) seconds
r, distance of proton from the heme iron ([12]; protons H2′/6′): 6.02 (0.37) angstroms
T1, 2C9 + CO ([12]; protons H2′/6′): 2.77 (0.07) seconds
T1, 2C9 ([12]; protons H3′/5′): 2.42 (0.08) seconds
r, distance of proton from the heme iron ([12]; protons H3′/5′): 5.82 (0.15) angstroms
T1, 2C9 + CO ([12]; protons H3′/5′): 2.70 (0.11) seconds
percent of wild-type kcat/Km [13]: 120%
kcat ([13]; substrate hydroxylation): 0.153 ± 0.0067 s⁻¹
Km at 20 min [14]: 34.8 ± 7 µM
Km at 20 min [15]: 237 ± 11.8 µM
percent of wild-type ΔA/K [16]: 160%
ΔA/K [16]: 8.5 μM^−1 × 10^−3
ΔAmax (maximum observed difference 390–420 nm) [16]: 34 ± 0.4 ×10^−3
decrease of efficiency of turnover relative to wild-type [17]: 20 fold
percent of wild-type kcat/Km [17]: 5%
kcat ([17]; substrate hydroxylation): 0.0267 ± 0.0033 s⁻¹
Kd [18]: 9.9 ± 1.3 µM
percent of wild-type kcat/Km [19]: 28%
Km at 20 min [20]: 105 ± 3.9 µM
Km at 20 min [21]: 19.5 ± 3.2 µM
percent of wild-type kcat/Km [22]: 3%
kcat ([22]; substrate hydroxylation): 0.0517 ± 0.0013 s⁻¹
H2O2/O2 [23]: 0.71
H2O/Metabolite [23]: 1.6
Metabolite/NADPH ([23]; coupling efficiency): 0.06
percent of wild-type kcat/Km ([24]; F476L): 29%
decrease of the efficiency of metabolism ([24]; F476→L mutation vs wild-type): 70%
Kd [25]: 9.1 ± 1 µM
fraction high spin ([26]; WT + ligand, used for the NMR distance calculation): 0.16
percent of wild-type ΔA/K ([26]; Wild-type): 100%
ΔA/K ([26]; Wild-type): 5.3 μM^−1 × 10^−3
ΔAmax (maximum observed difference 390–420 nm) ([26]; Wild-type): 18 ± 0.5 ×10^−3
percent of wild-type kcat/Km ([27]; WT): 100%
kcat ([27]; WT, substrate hydroxylation): 0.15 ± 0.0067 s⁻¹
Km at 20 min ([27]; human, pH 7.4): 22.9 ± 3.7 µM
